Test results taken from ChEMBL document CHEMBL5247587, “Discovery of benzimidazole substituted 1, 2, 4-oxadiazole compounds as novel anti-HBV agents with TLR8-agonistic activities” (Eur J Med Chem, 2022).
The source made the active and inactive calls. The rule behind the calls is not given here.

Assays:
[1] = Cytotoxicity against human HepG2 2.2.15 cells assessed as reduction in cell viability incubated for 72 hrs by CCK8 assay; assay type: toxicity, cell-based
Hepatitis B virus [2] = assay: Antiviral activity against HBV infected in human HepG2 2.2.15 cells assessed as inhibition of viral DNA replication at 4 uM incubated for 6 days with every 2 days media replacement by RT-PCR analysis relative to control; assay type: functional; parameters: scale not given: the % may be the effect or the level left; settings: time 6 day
Hepatitis B virus [3] = assay: Antiviral activity against HBV infected in human HepG2 2.2.15 cells assessed as inhibition of viral DNA replication incubated for 6 days with every 2 days media replacement by RT-PCR analysis; assay type: functional, organism-based
[4] = Selectivity index, ratio of CC50 for human HepG2 2.2.15 cells to IC50 for HBV infected in human HepG2 2.2.15 cells; assay type: toxicity, cell-based; settings: read-out: Ratio CC50/IC50
Hepatitis B virus [5] = assay: Antiviral activity against HBV infected in ETV/LAM-resistant human HepG2.A64 cells assessed as inhibition of viral DNA replication incubated for 72 hrs by RT-PCR analysis; assay type: functional, organism-based; settings: HepG2.A64, 72 h
[6] = Selectivity index, ratio of CC50 for human HepG2.A64 cells to IC50 for HBV infected in ETV/LAM-resistant human HepG2.A64 cells; assay type: toxicity; settings: read-out: Ratio CC50/IC50
Hepatitis B virus [7] = assay: Potency index, ratio of LAM IC50 to test compound IC50 for HBV infected in ETV/LAM-resistant human HepG2.A64 cells assessed as inhibition of viral DNA replication; assay type: functional
[8] = Cytotoxicity against human HepG2.A64 cells assessed as reduction in cell viability incubated for 72 hrs by CCK8 assay; assay type: toxicity, cell-based
[9] = target: Nuclear factor NF-kappa-B complex (Homo sapiens) (UniProt Q00653+P19838+Q04206); assay: Activation of NF-kappaB (unknown origin) transfected in HEK293T cells at 0.4 to 10 uM incubated for 48 hrs by Dual-luciferase reporter gene assay; assay type: cell-based; settings: dose 0.4-10 µM
Sequence of Nuclear factor NF-kappa-B complex (Homo sapiens) (P19838 whole entry, looked up): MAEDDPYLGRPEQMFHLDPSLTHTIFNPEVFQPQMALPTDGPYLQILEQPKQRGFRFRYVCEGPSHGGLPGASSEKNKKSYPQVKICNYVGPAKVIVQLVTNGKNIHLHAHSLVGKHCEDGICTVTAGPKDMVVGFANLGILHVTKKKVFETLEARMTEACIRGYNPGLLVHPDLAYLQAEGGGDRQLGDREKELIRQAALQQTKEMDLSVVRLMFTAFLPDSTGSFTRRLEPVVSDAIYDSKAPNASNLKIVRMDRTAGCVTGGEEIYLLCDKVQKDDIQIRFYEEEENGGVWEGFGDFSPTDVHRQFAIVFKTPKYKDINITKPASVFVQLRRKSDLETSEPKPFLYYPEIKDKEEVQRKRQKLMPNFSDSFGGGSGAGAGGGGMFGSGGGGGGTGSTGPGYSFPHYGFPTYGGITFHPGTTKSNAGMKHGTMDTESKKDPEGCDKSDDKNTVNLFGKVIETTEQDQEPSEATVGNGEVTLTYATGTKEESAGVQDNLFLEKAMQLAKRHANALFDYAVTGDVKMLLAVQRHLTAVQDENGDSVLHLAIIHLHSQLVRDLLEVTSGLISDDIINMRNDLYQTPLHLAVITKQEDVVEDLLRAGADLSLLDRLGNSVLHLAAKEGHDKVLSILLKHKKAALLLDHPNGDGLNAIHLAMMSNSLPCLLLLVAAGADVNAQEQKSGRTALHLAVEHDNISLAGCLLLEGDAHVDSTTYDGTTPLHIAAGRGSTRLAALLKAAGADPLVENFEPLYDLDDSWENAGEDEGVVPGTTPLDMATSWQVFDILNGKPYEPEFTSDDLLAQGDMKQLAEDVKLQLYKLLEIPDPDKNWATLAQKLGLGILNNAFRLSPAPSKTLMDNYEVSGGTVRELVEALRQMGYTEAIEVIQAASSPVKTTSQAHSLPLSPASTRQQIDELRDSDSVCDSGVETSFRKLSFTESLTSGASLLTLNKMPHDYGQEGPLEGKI
Sequence of Nuclear factor NF-kappa-B complex (Homo sapiens) (Q00653 whole entry, looked up): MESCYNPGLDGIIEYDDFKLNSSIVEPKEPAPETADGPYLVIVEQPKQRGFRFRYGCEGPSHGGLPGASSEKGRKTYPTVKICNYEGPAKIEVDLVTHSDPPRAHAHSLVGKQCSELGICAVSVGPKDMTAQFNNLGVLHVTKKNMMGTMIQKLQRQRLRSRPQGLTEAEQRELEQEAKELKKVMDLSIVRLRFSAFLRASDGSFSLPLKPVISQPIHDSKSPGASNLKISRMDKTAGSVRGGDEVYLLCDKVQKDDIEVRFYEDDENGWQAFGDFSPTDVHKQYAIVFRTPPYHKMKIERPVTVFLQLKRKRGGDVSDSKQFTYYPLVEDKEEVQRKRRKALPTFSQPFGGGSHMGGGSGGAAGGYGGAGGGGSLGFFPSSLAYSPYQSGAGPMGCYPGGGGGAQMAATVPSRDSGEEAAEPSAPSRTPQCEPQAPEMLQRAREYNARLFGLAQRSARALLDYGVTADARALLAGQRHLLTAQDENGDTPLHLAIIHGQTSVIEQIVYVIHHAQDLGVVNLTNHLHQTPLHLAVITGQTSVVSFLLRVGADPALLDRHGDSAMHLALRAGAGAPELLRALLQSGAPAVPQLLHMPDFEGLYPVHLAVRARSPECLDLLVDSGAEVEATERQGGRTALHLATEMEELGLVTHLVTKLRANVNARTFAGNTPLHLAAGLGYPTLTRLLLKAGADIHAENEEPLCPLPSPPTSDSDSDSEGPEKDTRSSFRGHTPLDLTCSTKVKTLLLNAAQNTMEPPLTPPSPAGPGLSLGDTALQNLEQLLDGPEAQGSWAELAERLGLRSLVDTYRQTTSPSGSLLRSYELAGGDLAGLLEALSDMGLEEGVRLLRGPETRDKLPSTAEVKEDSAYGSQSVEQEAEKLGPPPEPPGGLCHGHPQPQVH
Sequence of Nuclear factor NF-kappa-B complex (Homo sapiens) (Q04206 whole entry, looked up): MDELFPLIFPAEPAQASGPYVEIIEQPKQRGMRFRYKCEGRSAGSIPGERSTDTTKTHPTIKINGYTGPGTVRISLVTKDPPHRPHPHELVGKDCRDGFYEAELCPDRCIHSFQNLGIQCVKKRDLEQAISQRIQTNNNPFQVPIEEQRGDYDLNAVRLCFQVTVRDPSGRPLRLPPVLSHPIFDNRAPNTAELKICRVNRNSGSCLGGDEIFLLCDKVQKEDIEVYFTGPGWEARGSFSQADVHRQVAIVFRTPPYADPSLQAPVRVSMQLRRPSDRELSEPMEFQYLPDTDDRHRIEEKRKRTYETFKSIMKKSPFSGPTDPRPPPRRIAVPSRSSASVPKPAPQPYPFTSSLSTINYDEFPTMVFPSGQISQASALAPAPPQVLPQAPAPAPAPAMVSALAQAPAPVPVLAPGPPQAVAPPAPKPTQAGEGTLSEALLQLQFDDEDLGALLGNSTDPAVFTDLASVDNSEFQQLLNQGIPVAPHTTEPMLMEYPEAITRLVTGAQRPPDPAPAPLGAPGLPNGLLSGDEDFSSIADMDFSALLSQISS

[10] = target: T1, Toll-like receptor 8 (Homo sapiens) (UniProt Q9NR97); assay: Agonist activity at human TLR8 transfected in HEK293T cells co-transfected with NF-kappaB and renilla assessed as increase in TLR8-induced NF-kappaB activity at 0.4 to 10 uM incubated for 48 hrs by Dual-luciferase reporter gene assay; assay type: cell-based; settings: filed as agonist, dose 0.4-10 µM
T1 sequence (whole entry): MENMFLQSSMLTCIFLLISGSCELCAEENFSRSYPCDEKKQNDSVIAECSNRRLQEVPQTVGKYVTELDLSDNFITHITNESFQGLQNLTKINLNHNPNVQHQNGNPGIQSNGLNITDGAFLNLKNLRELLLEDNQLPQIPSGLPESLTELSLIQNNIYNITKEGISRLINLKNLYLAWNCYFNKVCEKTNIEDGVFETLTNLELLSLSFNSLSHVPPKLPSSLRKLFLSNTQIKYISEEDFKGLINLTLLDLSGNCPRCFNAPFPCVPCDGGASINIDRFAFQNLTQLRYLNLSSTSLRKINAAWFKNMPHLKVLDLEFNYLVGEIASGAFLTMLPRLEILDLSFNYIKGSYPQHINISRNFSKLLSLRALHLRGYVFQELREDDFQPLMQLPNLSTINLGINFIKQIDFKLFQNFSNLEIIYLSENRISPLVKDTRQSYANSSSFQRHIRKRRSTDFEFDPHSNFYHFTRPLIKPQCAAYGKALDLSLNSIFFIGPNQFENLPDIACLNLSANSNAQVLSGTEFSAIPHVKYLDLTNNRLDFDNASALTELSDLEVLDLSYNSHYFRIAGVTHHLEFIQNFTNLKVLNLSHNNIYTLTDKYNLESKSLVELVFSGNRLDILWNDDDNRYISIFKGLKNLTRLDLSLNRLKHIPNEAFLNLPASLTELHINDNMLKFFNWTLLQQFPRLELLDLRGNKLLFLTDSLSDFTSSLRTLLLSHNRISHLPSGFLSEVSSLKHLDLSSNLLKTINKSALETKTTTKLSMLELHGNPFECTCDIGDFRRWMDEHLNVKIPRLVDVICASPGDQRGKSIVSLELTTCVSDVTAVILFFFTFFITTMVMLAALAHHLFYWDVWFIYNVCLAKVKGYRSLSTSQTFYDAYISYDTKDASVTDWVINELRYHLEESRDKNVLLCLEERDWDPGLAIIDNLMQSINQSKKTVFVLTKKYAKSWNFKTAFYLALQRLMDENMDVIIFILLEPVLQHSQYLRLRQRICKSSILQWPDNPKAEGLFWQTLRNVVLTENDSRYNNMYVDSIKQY

[11] = target: T1, Toll-like receptor 8 (Homo sapiens); assay: Agonist activity at TLR8 in human PBMC cells assessed as increase in TNF-alpha level incubated for 24 hrs by ELISA; assay type: cell-based; settings: filed as agonist, dose 0.4-10 µM
[12] = target: T1, Toll-like receptor 8 (Homo sapiens); assay: Agonist activity at TLR8 in human PBMC cells assessed as increase in IL-12 level incubated for 24 hrs by ELISA; assay type: cell-based; settings: filed as agonist, dose 0.4-10 µM

| SMILES | CC50 at 72 h [1] [µM] | Activity (Hepatitis B virus [2]) [%] | IC50 (Hepatitis B virus [3]) [µM] | selectivity ratio [4] | other results |
| --- | --- | --- | --- | --- | --- |
| O=C(NCCn1cnc2cc(-c3noc(CCC4CCCC4)n3)ccc21)c1ccc(Br)cc1 | > 20 | 38.03 | – | – | – |
| O=C(NCCn1cnc2cc(-c3noc(CCC4CCCC4)n3)ccc21)c1ccc(F)cc1 | > 20 | 65.06 | 1.33 | > 15 | – |
| O=C(NCCn1cnc2cc(-c3noc(CCC4CCCC4)n3)ccc21)c1ccc(Cl)cc1 | > 20 | 63.41 | 1.96 | > 10.2 | – |
| O=C(NCCn1cnc2cc(-c3noc(CCC4CCCC4)n3)ccc21)c1ccccc1F | > 20 | 54.72 | 1.07 | > 18.7 | – |
| O=C(NCCn1cnc2cc(-c3noc(CCC4CCCC4)n3)ccc21)c1cccc(F)c1 | > 20 | 45.92 | – | – | – |
| O=C(NCCn1cnc2cc(-c3noc(CCC4CCCC4)n3)ccc21)c1cccc(Br)c1 | > 20 | 64.39 | 3.32 | > 6.02 | – |
| Cc1ccccc1NC(=O)CCn1cnc2cc(-c3noc(CCC4CCCC4)n3)ccc21 | > 20 | 7.43 | – | – | – |
| O=C(NCCn1cnc2cc(-c3noc(CCC4CCCC4)n3)ccc21)c1ccccc1C(F)(F)F | > 20 | 46.02 | 3.89 | > 5.14 | – |
| Cc1cccc(C(=O)NCCn2cnc3cc(-c4noc(CCC5CCCC5)n4)ccc32)c1 | > 20 | 9.58 | – | – | – |
| O=C(NCCn1cnc2cc(-c3noc(CCC4CCCC4)n3)ccc21)c1ccc(C(F)(F)F)cc1 | > 20 | 63.99 | 0.69 | > 29 | IC50 (Hepatitis B virus [5]): 0.61 µM; selectivity ratio [6]: > 32.8; Ratio IC50 (Hepatitis B virus [7]): 150; CC50 at 72 h [8]: > 20 µM |
| O=C(CCn1cnc2cc(-c3noc(CCC4CCCC4)n3)ccc21)N1CCOCC1 | > 20 | 0.02 | – | – | – |
| O=C(NCCn1cnc2cc(-c3noc(CCC4CCCC4)n3)ccc21)c1cccc(I)c1 | > 20 | 68.86 | 1.67 | > 12 | – |
| O=C(CCn1cnc2cc(-c3noc(CCC4CCCC4)n3)ccc21)NC1CCCCC1 | > 20 | 2.64 | – | – | – |
| O=C(CCn1cnc2cc(-c3noc(CCC4CCCCC4)n3)ccc21)N1CCCC1 | > 20 | 0.74 | – | – | – |
| O=C(NCCn1cnc2cc(-c3noc(CCC4CCCC4)n3)ccc21)c1ccc(I)cc1 | > 20 | 54.76 | 2.63 | > 7.6 | – |
| Cc1ccccc1C(=O)NCCn1cnc2cc(-c3noc(CCC4CCCC4)n3)ccc21 | > 20 | 6.59 | – | – | – |

| SMILES | CC50 at 72 h [1] [µM] | Activity (Hepatitis B virus [2]) [%] | IC50 (Hepatitis B virus [3]) [µM] | selectivity ratio [4] | other results |
| --- | --- | --- | --- | --- | --- |
| O=C(NCCn1cnc2cc(-c3noc(CCC4CCCC4)n3)ccc21)c1cccc(Cl)c1 | > 20 | 82.78 | 0.85 | > 23.5 | – |
| COc1ccc(C(=O)NCCn2cnc3cc(-c4noc(CCC5CCCC5)n4)ccc32)cc1 | > 20 | 73.8 | 2.64 | > 7.58 | – |
| O=C(CCn1cnc2cc(-c3noc(CCC4CCCC4)n3)ccc21)NC1CCCC1 | > 20 | 21.36 | – | – | – |
| O=C(NCCn1cnc2cc(-c3noc(CCC4CCCC4)n3)ccc21)c1ccccc1I | > 20 | 30.88 | – | – | – |
| Cc1ccc(C(=O)NCCn2cnc3cc(-c4noc(CCC5CCCC5)n4)ccc32)cc1 | > 20 | 54.11 | 1.53 | > 13.1 | – |
| O=C(NCCn1cnc2cc(-c3noc(CCC4CCCC4)n3)ccc21)c1ccccc1 | > 20 | 28.98 | – | – | – |
| O=C(NCCn1cnc2cc(-c3noc(CCC4CCCC4)n3)ccc21)c1cccc(C(F)(F)F)c1 | > 20 | 84.47 | 0.53 | > 37.7 | IC50 (Hepatitis B virus [5]): 0.44 µM; selectivity ratio [6]: > 45.5; Ratio IC50 (Hepatitis B virus [7]): 150; Activity [9]: inactive; Activity [10]: Active; Activity [11]: Dose-Dependent Effect; Activity [12]: Dose-Dependent Effect; CC50 at 72 h [8]: > 20 µM |
| O=C(CCn1cnc2cc(-c3noc(CCC4CCCC4)n3)ccc21)N1CCCC1 | > 20 | 48.57 | 5.17 | > 3.69 | – |
| Nc1ccn([C@@H]2CS[C@H](CO)O2)c(=O)n1 [LAMIVUDINE] | > 20 | 84.42 | < 0.1 | > 1000 | IC50 (Hepatitis B virus [5]): > 100 µM; CC50 at 72 h [8]: > 100 µM |
| O=C(CCn1cnc2cc(-c3noc(CCc4ccccc4)n3)ccc21)N1CCCC1 | > 20 | 24.46 | – | – | – |
| O=C(NCCn1cnc2cc(-c3noc(CCC4CCCC4)n3)ccc21)c1ccccc1Br | > 20 | 53.47 | 1.61 | > 12.4 | – |
| COc1ccccc1C(=O)NCCn1cnc2cc(-c3noc(CCC4CCCC4)n3)ccc21 | > 20 | 76.09 | 1.55 | > 12.9 | – |
| O=C(NCCn1cnc2cc(-c3noc(CCC4CCCC4)n3)ccc21)c1ccccc1Cl | > 20 | 10.63 | – | – | – |
| COc1cccc(C(=O)NCCn2cnc3cc(-c4noc(CCC5CCCC5)n4)ccc32)c1 | > 20 | 70.78 | 1.6 | > 12.5 | – |
| O=C(CCn1cnc2cc(-c3noc(CCC4CCCC4)n3)ccc21)N1CCCCC1 | > 20 | 53.4 | 6.3 | > 3.17 | – |
